US7741327B2 (Hoffmann-La Roche Inc., priority 2008, dated 2010)

Target: T1, Recombinant human liver GK1 (GST-GK) (Homo sapiens, UniProt P35557)
T1 construct: made in house; host or cells: E. coli
T1 sequence (P35557 1-466 isoform P35557-2): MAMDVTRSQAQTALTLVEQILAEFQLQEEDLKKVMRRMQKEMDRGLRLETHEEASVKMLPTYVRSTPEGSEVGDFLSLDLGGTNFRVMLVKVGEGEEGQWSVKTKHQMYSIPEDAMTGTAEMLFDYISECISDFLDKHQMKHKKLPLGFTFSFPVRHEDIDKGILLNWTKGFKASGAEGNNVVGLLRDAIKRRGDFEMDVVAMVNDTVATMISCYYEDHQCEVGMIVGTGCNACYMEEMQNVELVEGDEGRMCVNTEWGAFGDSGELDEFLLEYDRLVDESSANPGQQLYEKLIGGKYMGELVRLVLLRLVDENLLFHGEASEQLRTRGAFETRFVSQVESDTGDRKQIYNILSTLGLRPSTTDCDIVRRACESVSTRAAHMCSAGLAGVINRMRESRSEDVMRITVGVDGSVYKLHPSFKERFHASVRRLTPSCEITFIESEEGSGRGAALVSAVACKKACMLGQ
Assay: In vitro glucokinase activity (G6PDH-coupled NADH assay)
Type: biochemical
Conditions: 30° C., 5 mM D-glucose, 10% DMSO
Outline: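 Activation measured as the rate of OD340 rise from G6PDH-coupled NADH production, relative to 10% DMSO control, reported as SC1.5 (concentration for 50% activity increase). Conditions: 30° C, pH 7.1 Hepes, 5 mM glucose, 1 mM ATP, purified recombinant GST-human GK1, compound preincubated 10 min before enzyme addition.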

Row | SMILES | SC1.5 (concentration of activator that produced a 50% increase in the activity of GK) [µM]
1 | O=C(Nc1ccn(C[C@@H](O)CO)n1)C(CC(C(F)(F)F)C(F)(F)F)N1CC(Oc2ccccc2Cl)=CC1=O (stereo partly drawn) [Example 219, 2-[4-(2-Chloro-phenoxy)-2-oxo-2,5-dihydro-pyrrol-1-yl]-5,5,5-trifluoro-4-trifluoromethyl-pentanoic acid [1-((R)-2,3-dihydroxy-propyl)-1H-pyrazol-3-yl]-amide] | 4.287
2 | CC(=O)Cc1nsc(NC(=O)[C@H](CC(C)C)N2CC(Oc3ccccc3Cl)=CC2=O)n1 [Example 113, (S)-2-[4-(2-Chloro-phenoxy)-2-oxo-2,5-dihydro-pyrrol-1-yl]-4-methyl-pentanoic acid [3-(2-oxo-propyl)-[1,2,4]thiadiazol-5-yl]-amide] | 1.737
3 | O=C(Nc1ccn(C[C@@H](O)CO)n1)[C@H](CC1CCCCC1)N1CC(Oc2c(F)cccc2F)=CC1=O [Example 38, (S)-3-Cyclohexyl-2-[4-(2,6-difluoro-phenoxy)-2-oxo-2,5-dihydro-pyrrol-1-yl]-N-[1-((R)-2,3-dihydroxy-propyl)-1H-pyrazol-3-yl]-propionamide] | 0.027
4 | COC1=CC(=O)N([C@@H](CC2CCCCC2)C(=O)Nc2ccn(CC(C)(C)O)n2)C1 [Example 56, (S)-3-Cyclohexyl-N-[1-(2-hydroxy-2-methyl-propyl)-1H-pyrazol-3-yl]-2-(4-methoxy-2-oxo-2,5-dihydro-pyrrol-1-yl)-propionamide] | 4.985
5 | CCOc1cccc(OC2=CC(=O)N([C@@H](CC(C)C)C(=O)Nc3cnc([C@H]4COC(C)(C)O4)cn3)C2)c1F [Example 150, (S)-2-[4-(3-Ethoxy-2-fluoro-phenoxy)-2-oxo-2,5-dihydro-pyrrol-1-yl]-4-methyl-pentanoic acid [5-((S)-2,2-dimethyl-[1,3]dioxolan-4-yl)-pyrazin-2-yl]-amide] | 0.2
6 | CC(C)C[C@@H](C(=O)Nc1ncc(Cl)s1)N1CC(Oc2ccccc2Cl)=CC1=O [Example 190, (S)-2-[4-(2-chloro-phenoxy)-2-oxo-2,5-dihydro-pyrrol-1-yl]-4-methyl-pentanoic acid (5-chloro-thiazol-2-yl)-amide] | 0.63
7 | COc1ccccc1OC1=CC(=O)N(C(COC(C)(C)C)C(=O)Nc2ccn(CC(C)(C)O)n2)C1 (stereo not drawn) [Example 35, 3-t-Butoxy-N-[1-(2-hydroxy-2-methyl-propyl)-1H-pyrazol-3-yl]-2-[4-(2-methoxy-phenoxy)-2-oxo-2,5-dihydro-pyrrol-1-yl]-propionamide] | 9.491
8 | CC(C)C[C@@H](C(=O)Nc1cnccn1)N1CC(Oc2cccc(C(C)(C)O)c2F)=CC1=O [Example 247, (S)-2-{4-[2-Fluoro-3-(1-hydroxy-1-methyl-ethyl)-phenoxy]-2-oxo-2,5-dihydro-pyrrol-1-yl}-4-methyl-pentanoic acid pyrazin-2-ylamide] | 2.59
9 | COc1ccc(F)c(OC2=CC(=O)N([C@@H](CC(C)C)C(=O)Nc3ccn(C[C@@H](O)CO)n3)C2)c1F [Example 119, (S)-2-[4-(2,6-Difluoro-3-methoxy-phenoxy)-2-oxo-2,5-dihydro-pyrrol-1-yl]-4-methyl-pentanoic acid [1-((R)-2,3-dihydroxy-propyl)-1H-pyrazol-3-yl]-amide] | 0.072
10 | COCc1nsc(NC(=O)[C@H](CC(C)C)N2CC(Oc3ccccc3Cl)=CC2=O)n1 [Example 112, (S)-2-[4-(2-Chloro-phenoxy)-2-oxo-2,5-dihydro-pyrrol-1-yl]-4-methyl-pentanoic acid (3-methoxymethyl-[1,2,4]thiadiazol-5-yl)-amide] | 2.26
11 | CC1(C)OC[C@@H](Cn2ccc(NC(=O)[C@H](Cc3c(F)cccc3F)N3CC(Oc4ccccc4Cl)=CC3=O)n2)O1 [Example 184, (S)-2-[4-(2-chloro-phenoxy)-2-oxo-2,5-dihydro-pyrrol-1-yl]-N-[1-((R)-2,2-dimethyl-[1,3]dioxolan-4-yl-methyl)-1H-pyrazol-3-yl]-3-(2,6-difluoro-phenyl)-propionamide] | 0.617
12 | COC1=CC(=O)N([C@@H](CC2CCCC2)C(=O)Nc2cnccn2)C1 [Example 9, (S)-3-Cyclopentyl-2-(4-methoxy-2-oxo-2,5-dihydro-pyrrol-1-yl)-N-pyrazin-2-yl-propionamide] | 6.54
13 | Cc1cccc(OC2=CC(=O)N([C@@H](CC3CCCCC3)C(=O)Nc3ccn(CC(C)(C)O)n3)C2)c1C [Example 204, (S)-3-cyclohexyl-2-[4-(2,3-dimethyl-phenoxy)-2-oxo-2,5-dihydro-pyrrol-1-yl]-N-[1-(2-hydroxy-2-methyl-propyl)-1H-pyrazol-3-yl]-propionamide] | 0.012
14 | O=C(Nc1ccn(C[C@@H](O)CO)n1)C(CC1CCOCC1)N1CC(Oc2c(F)cccc2F)=CC1=O (stereo partly drawn) [Example 44, 2-[4-(2,6-Difluoro-phenoxy)-2-oxo-2,5-dihydro-pyrrol-1-yl]-N-[1-((R)-2,3-dihydroxy-propyl)-1H-pyrazol-3-yl]-3-(tetrahydro-pyran-4-yl)-propionamide] | 0.165
15 | COCCc1nsc(NC(=O)[C@H](CC(C)C)N2CC(Oc3ccccc3Cl)=CC2=O)n1 [Example 104, (S)-2-[4-(2-Chloro-phenoxy)-2-oxo-2,5-dihydro-pyrrol-1-yl]-4-methyl-pentanoic acid [3-(2-methoxy-ethyl)-[1,2,4]thiadiazol-5-yl]-amide] | 1.03
16 | CC1(C)OC[C@@H](Cn2ccc(NC(=O)[C@H](Cc3ccccc3F)N3CC(Oc4ccccc4Cl)=CC3=O)n2)O1 [Example 182, (S)-2-[4-(2-chloro-phenoxy)-2-oxo-2,5-dihydro-pyrrol-1-yl]-N-[1-((R)-2,2-dimethyl-[1,3]dioxolan-4-yl-methyl)-1H-pyrazol-3-yl]-3-(2-fluoro-phenyl)-propionamide] | 0.496
17 | COC1=CC(=O)N([C@@H](CC2CCCC2)C(=O)Nc2ccn(CCNC(=O)OC(C)(C)C)n2)C1 [Example 7, (2-{3-[(S)-3-Cyclopentyl-2-(4-methoxy-2-oxo-2,5-dihydro-pyrrol-1-yl)-propionylamino]-pyrazol-1-yl}-ethyl)-carbamic acid t-butylester] | 13.732
18 | CC(C)(O)Cn1ccc(NC(=O)[C@H](CC2CCCCC2)N2CC(Oc3cccc(C(F)(F)F)c3)=CC2=O)n1 [Example 209, (S)-3-cyclohexyl-N-[1-(2-hydroxy-2-methyl-propyl)-1H-pyrazol-3-yl]-2-[2-oxo-4-(3-trifluoromethyl-phenoxy)-2,5-dihydro-pyrrol-1-yl]-propionamide] | 0.076
19 | CC(C)(O)Cn1ccc(NC(=O)[C@@H](C[C@H]2C[C@H](C)C2)N2CC(Oc3ccccc3Cl)=CC2=O)n1 (single isomer, unassigned) [Example 216] | 2.715
20 | CC(C)(O)Cn1ccc(NC(=O)[C@H](CC2CCCCC2)N2CC(Oc3cccc(Cl)c3)=CC2=O)n1 [Example 207, (S)-2-[4-(3-chloro-phenoxy)-2-oxo-2,5-dihydro-pyrrol-1-yl]-3-cyclohexyl-N-[1-(2-hydroxy-2-methyl-propyl)-1H-pyrazol-3-yl]-propionamide] | 0.018
21 | CC(C)C[C@@H](C(=O)Nc1ccn(C[C@@H](O)CO)n1)N1CC(Oc2cccc(C(F)(F)F)c2)=CC1=O [Example 96, (S)-4-Methyl-2-[2-oxo-4-(3-trifluoromethyl-phenoxy)-2,5-dihydro-pyrrol-1-yl]-pentanoic acid [1-((R)-2,3-dihydroxy-propyl)-1H-pyrazol-3-yl]-amide] | 0.97
22 | COC1=CC(=O)N([C@@H](CC2CCCC2)C(=O)Nc2ccn(CC(C)(C)OC)n2)C1 [Example 5, (S)-3-Cyclopentyl-N-[1-(2-methoxy-2-methyl-propyl)-1H-pyrazol-3-yl]-2-(4-methoxy-2-oxo-2,5-dihydro-pyrrol-1-yl)-propionamide] | 3.15
23 | CC(C)C[C@@H](C(=O)Nc1ccn(C[C@@H](O)CO)n1)N1CC(Oc2cccc(Br)c2F)=CC1=O [Example 129, (S)-2-[4-(3-Bromo-2-fluoro-phenoxy)-2-oxo-2,5-dihydro-pyrrol-1-yl]-4-methyl-pentanoic acid [1-((R)-2,3-dihydroxy-propyl)-1H-pyrazol-3-yl]-amide] | 0.163
24 | O=C(Nc1ccn(C[C@@H](O)CO)n1)[C@H](Cc1c(F)cccc1F)N1CC(Oc2ccccc2Cl)=CC1=O [Example 185, (S)-2-[4-(2-chloro-phenoxy)-2-oxo-2,5-dihydro-pyrrol-1-yl]-N-[1-((R)-2,3-dihydroxy-propyl)-1H-pyrazol-3-yl]-3-(2,6-difluorophenyl)-propionamide] | 0.371
